The source of these data is US20080020932A1, “Method for Combating Weeds” (Bayer Cropscience AG, priority 2004, published 2008).

The test system of this assay is Apera spica-venti. Nature of the assay: Postemergence field trials in winter wheat: herbicidal activity. As to conditions: field trials carried out. The assay is classed as in vivo. On the procedure: The compound of the formula (I) was tested under field conditions in Winter wheat in Germany and Poland against the economically significant weed Apera spica-venti. The plot trials were instituted on cultivated land used agriculturally, and the conditions of cultivation and climate can be regarded as being representative over the period under investigation. Areas with a particularly high weed population were selected preferentially.
The active ingredient was applied postemergence (spring) across the area by spraying with a medium droplet size. An appropriate preparation of active ingredient was produced by formulating the active ingredient as a 10 WP (10% w/w water-dispersible powder), mixed with the safener mefenpyr-diethyl as a 15 WG (15% w/w water-dispersible granules) and with alkyl ether sulfates as an additive, and applied with customary amounts of water.
For the assessment of crop tolerance, instances of plant growth inhibition or lightening of the leaf area were rated in % damage in comparison to the development of the untreated control, 1 to 7 weeks after treatment. The herbicidal activity was assessed at a number of times after treatment, based on the development of weeds, as a % reduction in comparison to the untreated control. For these purposes: • 0%=no damage to crop or no herbicidal action; • 100%=total destruction of the crop or of the weeds, respectively.

Turning to `COC(=O)c1csc(C)c1S(=O)(=O)NC(=O)n1nc(OC)n(C)c1=O` [compound of the formula (I), 5-methoxy-4-methyl-2-[(4-methoxycarbonyl-2-methylthien-3-yl)sulfonylaminocarbonyl]-2,4-dihydro-3H-1,2,4-triazol-3-one], the “control of the annual varieties of Apera spica-venti in cereals (in words)” value is “particularly effective”.
